Test results as given in article PMC11117660, “Novel Angiotensin-Converting Enzyme-Inhibitory Peptides Obtained from Trichiurus lepturus: Preparation, Identification and Potential Antihypertensive Mechanism” (Biomolecules, 2024).
Like-named read-outs stand apart in the source and are kept apart here. Where no end group is shown, it is not given here.

Legend:
[1] = target: T1, Angiotensin I-converting enzyme (ACE) (Oryctolagus cuniculus, UniProt P12822); assay: ACE-inhibitory activity (FAPGG substrate, absorbance at 340 nm); format: biochemical, rabbit; conditions: synthetic peptides, Figure 7; experiments in triplicate
T1 construct: sourced from rabbit lungs; purchased Sigma-Aldrich (St. Louis, MO, USA); host or cells: rabbit lung tissue
T1 sequence (P12822 34-1310): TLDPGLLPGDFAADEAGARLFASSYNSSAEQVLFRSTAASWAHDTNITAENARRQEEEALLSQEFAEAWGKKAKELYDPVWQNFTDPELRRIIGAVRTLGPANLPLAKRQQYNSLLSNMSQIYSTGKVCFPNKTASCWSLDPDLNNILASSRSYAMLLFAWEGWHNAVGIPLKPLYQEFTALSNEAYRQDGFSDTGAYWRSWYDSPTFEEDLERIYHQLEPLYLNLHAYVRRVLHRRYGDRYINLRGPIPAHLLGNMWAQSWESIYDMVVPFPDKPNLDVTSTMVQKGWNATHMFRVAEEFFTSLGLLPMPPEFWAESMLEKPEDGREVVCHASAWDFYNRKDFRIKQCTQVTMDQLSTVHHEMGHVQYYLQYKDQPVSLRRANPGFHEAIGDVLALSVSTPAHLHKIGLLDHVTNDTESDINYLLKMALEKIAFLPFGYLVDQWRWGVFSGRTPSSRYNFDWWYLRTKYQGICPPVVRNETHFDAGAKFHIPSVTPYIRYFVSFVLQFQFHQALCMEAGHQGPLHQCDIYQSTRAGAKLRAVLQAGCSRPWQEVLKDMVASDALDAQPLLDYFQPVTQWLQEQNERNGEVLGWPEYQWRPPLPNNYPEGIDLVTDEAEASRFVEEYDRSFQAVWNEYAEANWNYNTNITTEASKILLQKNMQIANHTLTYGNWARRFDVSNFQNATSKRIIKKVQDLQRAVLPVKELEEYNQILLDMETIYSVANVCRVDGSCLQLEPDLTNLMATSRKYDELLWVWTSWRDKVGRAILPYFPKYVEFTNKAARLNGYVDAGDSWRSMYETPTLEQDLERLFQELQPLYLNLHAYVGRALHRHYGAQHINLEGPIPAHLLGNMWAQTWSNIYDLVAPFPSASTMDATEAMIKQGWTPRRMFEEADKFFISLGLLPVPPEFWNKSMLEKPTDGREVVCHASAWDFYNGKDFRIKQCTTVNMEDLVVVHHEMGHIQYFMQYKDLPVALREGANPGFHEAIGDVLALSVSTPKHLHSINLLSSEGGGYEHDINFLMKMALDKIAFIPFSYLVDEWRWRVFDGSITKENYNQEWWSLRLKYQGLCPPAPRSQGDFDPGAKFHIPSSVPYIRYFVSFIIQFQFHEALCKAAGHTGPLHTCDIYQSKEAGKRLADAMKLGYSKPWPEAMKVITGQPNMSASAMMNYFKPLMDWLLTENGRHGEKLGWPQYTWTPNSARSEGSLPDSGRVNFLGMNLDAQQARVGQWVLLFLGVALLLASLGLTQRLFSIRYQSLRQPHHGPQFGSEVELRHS
Description: ACE-inhibitory activity was assessed by following the experimental procedure reported by Dou et al., with slight modifications. […] The negative control group was substituted with 100 μL of borate-buffered HEPES. The initial absorbance values of a1 and b1 for both the blank and sample groups were then measured at 340 nm (Thermo Fisher, Waltham, MA, USA). The sample group was then incubated at 37 °C for 30 min, and subsequently, the absorbance values were read again at 340 nm (a2, b2). […] The initial absorbance of the blank: a1-blank; b1-sample. a2: the absorbance values after incubation at 37 °C for 30 min. a2: blank; b2: samples.

[2] = target: T1, Angiotensin I-converting enzyme (ACE); assay: In vitro simulated oral gastrointestinal digestion, ACE-inhibition read-out; format: biochemical, rabbit; conditions: initially (before digestion), captopril as reference, Figure 5b
Description: ACE-inhibitory activity was assessed by following the experimental procedure reported by Dou et al., with slight modifications. A solution of borate-buffered HEPES (50 mM, pH 8.3) was dispensed into a 96-well plate, followed by the addition of samples (100 µL), ACE (50 µL, 0.1 U/mL, prepared from 50 mM borate buffer pH 8.3), and FAPGG(N-[3-(2-Furyl)acryloyl]-Phe-Gly-Gly) (50 µL, 1 mM) into each well. The negative control group was substituted with 100 µL of borate-buffered HEPES. The initial absorbance values of a1 and b1 for both the blank and sample groups were then measured at 340 nm (Thermo Fisher, Waltham, MA, USA). The sample group was then incubated at 37 °C for 30 min, and subsequently, the absorbance values were read again at 340 nm (a2, b2). (1) ACE inhibition rate=A−B/A×100% where A = a1 − a2, and B = b1 − b2. The initial absorbance of the blank: a1—blank; b1—sample. a2: the absorbance values after incubation at 37 °C for 30 min. a2: blank; b2: samples.
The in vitro digestion process was utilized. A quantity of 1 mg of the sample was dissolved in 1 mL of water and preheated in a water bath at 37 °C. Then, it was mixed with 1 mL of artificial saliva whose pH was adjusted to pH 6.8. The mixture was then agitated at 100 rpm for 1 min at 37 °C. Subsequently, the pH was adjusted to pH 2.0 using 1 M HCl and added in equal amounts to the simulated gastric digest. […]

ACE = conditions: cited from earlier work
Description: According to the literature, ACE-inhibitory peptides with an IC50 between about 0.32 and 1000 μM have the potential to lower blood pressure. […] We therefore hypothesized that the peptides from FAGDDAPR, QGPIGPR, and GPTGPAGPR may have antihypertensive effects. […] Subsequently, peptides from the ribbonfish hydrolysates were isolated and identified through a combination of filtration and gel filtration chromatography techniques. […] Similarly, Dong et al. used alkaline protease to hydrolyze tilapi ...

[3] = literature examples of antihypertensive peptides, the reference is not clearly printed, read-out: IC50

With FAGDDAPR [FAGDDAPR] the IC50 [1] was 263 µM and the “ACE-inhibitory activity lower than that of captopril” value [2] was 31.17%.
For FRVW, the IC50 (ACE; from Pinctada fucata, read-out: ACE-inhibitory IC50) is listed as 18.3 µM.
With GPTGPAGPR [GPTGPAGPR] the IC50 [1] was 168 µM.
For LEPWR, the IC50 (ACE; from Pacific saury neutral protease hydrolysate, read-out: ACE-inhibitory IC50) is given as 99.5 µM.
For QGPIGPR [QGPIGPR], the IC50 [1] was 81.1 µM.
For VGINYW, the IC50 (ACE; [3]) is given as 15.1 µM.
For “VGLFPSRSF [literature oligopeptide from tilapia (Oreochromis niloticus) skin hydrolysate]”, the IC50 (ACE; from tilapia skin alkaline protease hydrolysate, read-out: ACE-inhibitory IC50) is listed as 61.4 µM.
In the case of WAGP, the IC50 (ACE; [3]) is listed as 141 µM.
